Data: US20070219268A1, “Anti-cancer activity augmentation compounds and formulations and methods of use thereof” (BioNumerik Pharmaceuticals, Inc., priority 2006, published 2007)
“Also recorded” adds a separate entry of the source.

How the values were obtained:
glutaredoxin = target: T1, glutaredoxin (Homo sapiens, UniProt P35754); assay: Glutaredoxin assay in the presence of reduced glutathione and glutathione reductase; assay type: biochemical
T1 sequence (P35754 1-106): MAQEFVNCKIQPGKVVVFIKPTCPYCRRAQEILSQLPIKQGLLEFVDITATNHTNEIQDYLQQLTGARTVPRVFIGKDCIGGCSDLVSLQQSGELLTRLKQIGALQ
Excerpt: In addition to the absence of interference with anti-cancer activity, results from in vivo studies have shown that Tavocept™ may elicit the restoration of apoptotic sensitivity in tumor cells through thioredoxin- and glutaredoxin-mediated mechanisms and this may be an important element of its effectiveness as a chemotherapeutic agent.

thioredoxin (TRX) = target: T2, thioredoxin (TRX) (Homo sapiens, UniProt P10599); assay: NADPH oxidation at 340 nm by TRR in the presence of TRX; assay type: biochemical
T2 sequence (P10599 1-105): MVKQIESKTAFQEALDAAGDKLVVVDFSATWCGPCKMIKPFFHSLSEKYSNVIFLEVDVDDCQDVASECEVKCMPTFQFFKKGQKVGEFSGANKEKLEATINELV
Protocol: (§1) The activity of TRR and TRX was determined by following NADPH oxidation at 340 nm according to the previously reported method. See, Luthman, M., and Holmgren, A. Rat liver thioredoxin and thioredoxin reductase: purification and characterization. Biochemistry 21:6628-6633 (1982). A typical assay mixture contained TR buffer (50 mM potassium phosphate, pH 7.0, 1 mM EDTA), 200 μM NADPH, 1.6 μg bovine TRR, and one or more of the following: 4.8 μM TRX, 86 μM insulin, and one of the disulfides described herein. All disulfides were added to reactions as 10× solutions in TR buffer. The total volume of each reaction was 0.1 mL. Reactions were initiated by the addition of TRR and were incubated at 25° C. for 40 min. The activity was calculated using a 4 min. linear portion of each reaction. Enzyme assays were carried out using either a Molecular Devices SpectraMaxPlus UV plate reader or a Varian Cary 100 UV-visible Spectrophotometer.
(§2) Data was then collected and plotted in Microsoft Excel. Error calculations, and graphical representations were performed in Microsoft Excel and Kaleidograph (ver. 3.5). Nonlinear data was graphically rendered using Kaleidograph. ANOVA and other statistical analyses were performed using SAS (ver. 8.2). Unless otherwise noted, significance level was set at 0.05, and error bars represent actual experimental standard deviation.

[1] = target: T3, thioredoxin reductase (TRR) (Bos taurus, UniProt O62768); assay: NADPH oxidation at 340 nm by TRR in the absence of TRX; assay type: biochemical, bovine
T3 sequence (O62768 1-499): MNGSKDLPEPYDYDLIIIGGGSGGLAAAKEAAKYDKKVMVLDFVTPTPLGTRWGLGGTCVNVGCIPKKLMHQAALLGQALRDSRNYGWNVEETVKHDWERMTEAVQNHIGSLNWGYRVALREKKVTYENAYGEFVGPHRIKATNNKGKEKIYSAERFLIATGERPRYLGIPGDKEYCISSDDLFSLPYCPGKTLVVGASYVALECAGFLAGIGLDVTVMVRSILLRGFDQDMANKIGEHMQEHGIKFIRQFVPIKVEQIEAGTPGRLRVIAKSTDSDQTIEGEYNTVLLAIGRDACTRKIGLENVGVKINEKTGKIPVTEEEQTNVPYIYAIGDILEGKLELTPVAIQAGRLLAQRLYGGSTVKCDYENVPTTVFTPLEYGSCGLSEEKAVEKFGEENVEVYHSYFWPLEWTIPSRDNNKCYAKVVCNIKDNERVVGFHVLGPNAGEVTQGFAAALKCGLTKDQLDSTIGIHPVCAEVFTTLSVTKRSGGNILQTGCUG
Protocol: as §1, §2

[2] = target: T4, glutathione-S-transferase (GST), m1-1 isotype (Homo sapiens, UniProt P09488); assay: GST assay: conjugation of reduced glutathione to CDNB, absorbance at 340 nm; assay type: biochemical; settings: difference of relative activity from 100%
T4 construct: purchased
T4 sequence (P09488 1-218): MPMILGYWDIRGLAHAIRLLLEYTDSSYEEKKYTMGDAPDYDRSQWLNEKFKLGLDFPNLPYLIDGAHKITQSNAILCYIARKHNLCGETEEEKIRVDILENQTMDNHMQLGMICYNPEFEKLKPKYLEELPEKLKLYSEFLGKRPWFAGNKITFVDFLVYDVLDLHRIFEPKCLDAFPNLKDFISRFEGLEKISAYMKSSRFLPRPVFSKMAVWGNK
Excerpt: The following experiments were designed to determine if Tavocept™ has an inhibitory or stimulatory effect on GST. […] An in vitro assay for GST has been developed and reported. See, Meyer, D. J. and Ketterer, B., Purification of soluble human glutathione S-transferases. Methods Enzymol. 252:53-65 (1995). This assay monitors the conjugation of reduced glutathione to 1-chloro-2,4-dinitrobenzene (CDNB), as illustrated in Reaction Scheme II, below.
Reduced thiol forms a conjugate with CDNB (extinction coefficient=9600 M^−1 cm^−1), which is detected at 340 nm. Stock solutions of GSH, CDNB, Tavocept™ were prepared by dissolving the reagent in sterile water at the concentrations listed below prior to use. […] Slopes were measured in the linear range of the assay (i.e., typically between 5 to 10 min.). In assays where the effect of Tavocept™ on GST activity was measured, 20 μL of either a 500 mM, 166.7 mM, or 55.6 mM stock solution of Tavocept™ was added to standard reactions using 1 mM GSH as the enzyme substrate. […]
Raw data was obtained on a Cary 100 spectrophotometer. […] No absorbance values were collected during the process of enzyme addition. […] It was during this time that reaction rates (i.e., slopes of change in absorbance with time) were measured using the Cary 100 software. […]

[3] = based on magnitude and concentration-dependence of oxidation responses

With `O=S(=O)([O-])CCSSCCS(=O)(=O)[O-].[Na+].[Na+]` [Tavocept™, disodium 2,2′-dithio-bis-ethane sulfonate] the activity with glutaredoxin (glutaredoxin) was “substrate-like activity”, the “NADPH oxidation by TRR in the presence of TRX” value (thioredoxin (TRX); 4.8 μM TRX, 200 μM NADPH, 25° C.) was “concentration-dependent increase” and the “substrate for TRX” value (thioredoxin (TRX); [3]) was “most likely a substrate for TRX; also recorded: substrate for thioredoxin”. The “substrate for TRR” value [1, 3] was “not for TRR”, the “NADPH oxidation by TRR in the absence of TRX” value ([1]; no TRX, 200 μM NADPH, 25° C.) was “indistinguishable from background” and the “Percent Inhibition” value ([2]; 1.1 mM Tavocept) was 5.6%. For the same compound, the “Percent Inhibition” value ([2]; 3.3 mM Tavocept) was 39%.
